From ChEMBL document CHEMBL5653615 (J Biol Chem, 2013) come the findings set out here.

Each structure is given as a SMILES string.

The target of assay [1] is Tyrosine-protein kinase ABL1 (Homo sapiens) (UniProt P00519). In words: Inhibition of human ABL1 at 1.82 nM by HotSpot assay relative to control.
Assay [2] deals with T1, Aurora kinase A (Homo sapiens) (UniProt O14965).
T1 sequence (whole entry): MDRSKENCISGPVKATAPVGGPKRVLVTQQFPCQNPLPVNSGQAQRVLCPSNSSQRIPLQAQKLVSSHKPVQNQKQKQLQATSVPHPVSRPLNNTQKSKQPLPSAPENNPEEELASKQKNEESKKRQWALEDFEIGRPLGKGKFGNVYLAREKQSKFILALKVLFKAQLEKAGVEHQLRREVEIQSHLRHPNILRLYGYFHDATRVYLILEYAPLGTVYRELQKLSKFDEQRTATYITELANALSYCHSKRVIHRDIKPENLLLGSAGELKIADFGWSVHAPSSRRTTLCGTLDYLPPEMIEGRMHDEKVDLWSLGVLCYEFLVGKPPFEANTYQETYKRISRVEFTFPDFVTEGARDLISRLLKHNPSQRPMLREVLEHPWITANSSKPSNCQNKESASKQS
Kind of assay: Inhibition of human Aurora A at 1.82 nM by HotSpot assay relative to control.

Assay [3] deals with Calcium/calmodulin-dependent protein kinase type 1D (Homo sapiens) (UniProt Q8IU85). Kind of assay: Inhibition of human CAMK1d at 1.82 nM by HotSpot assay relative to control.
Assay [4] concerns the target G protein-coupled receptor kinase 6 (Homo sapiens) (UniProt P43250). Kind of assay: Inhibition of human GRK6 at 1.82 nM by HotSpot assay relative to control.
Assay [5] concerns the target Serine/threonine-protein kinase 10 (Homo sapiens) (UniProt O94804). In words: Inhibition of human LOK at 1.82 nM by HotSpot assay relative to control.
Assay [6] has as its target ALK tyrosine kinase receptor (Homo sapiens) (UniProt Q9UM73). Kind of assay: Inhibition of human ALK at 18.6 nM by HotSpot assay relative to control.
The target in assay [7] is T2, Tyrosine-protein kinase Mer (Homo sapiens) (UniProt Q12866).
T2 sequence (whole entry): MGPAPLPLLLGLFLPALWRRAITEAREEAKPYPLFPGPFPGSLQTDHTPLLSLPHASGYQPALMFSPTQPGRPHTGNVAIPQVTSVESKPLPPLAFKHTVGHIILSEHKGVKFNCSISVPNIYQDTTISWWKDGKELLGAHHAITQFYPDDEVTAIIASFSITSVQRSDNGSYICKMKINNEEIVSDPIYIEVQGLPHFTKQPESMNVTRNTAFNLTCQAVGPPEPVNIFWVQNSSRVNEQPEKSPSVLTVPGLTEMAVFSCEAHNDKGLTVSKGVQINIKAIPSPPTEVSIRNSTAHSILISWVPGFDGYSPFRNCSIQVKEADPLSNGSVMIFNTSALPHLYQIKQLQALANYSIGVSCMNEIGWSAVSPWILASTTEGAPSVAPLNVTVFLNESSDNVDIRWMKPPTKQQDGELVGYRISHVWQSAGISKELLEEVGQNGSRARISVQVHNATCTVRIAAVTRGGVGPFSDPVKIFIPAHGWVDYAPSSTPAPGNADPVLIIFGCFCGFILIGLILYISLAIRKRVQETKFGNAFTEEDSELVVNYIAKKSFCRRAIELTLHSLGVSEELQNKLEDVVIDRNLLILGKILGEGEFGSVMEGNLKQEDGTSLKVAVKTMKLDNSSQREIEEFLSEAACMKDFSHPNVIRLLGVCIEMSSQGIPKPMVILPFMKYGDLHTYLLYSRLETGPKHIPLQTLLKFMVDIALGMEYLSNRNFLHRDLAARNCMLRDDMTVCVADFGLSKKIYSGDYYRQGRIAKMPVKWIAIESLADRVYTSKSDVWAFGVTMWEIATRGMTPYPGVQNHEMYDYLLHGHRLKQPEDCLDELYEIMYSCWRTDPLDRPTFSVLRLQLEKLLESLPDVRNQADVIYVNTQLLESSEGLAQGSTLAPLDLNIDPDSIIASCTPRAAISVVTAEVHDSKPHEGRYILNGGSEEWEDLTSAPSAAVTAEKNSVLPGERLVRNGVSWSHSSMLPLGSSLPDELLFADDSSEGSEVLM
Kind of assay: Inhibition of human c-MER at 18.6 nM by HotSpot assay relative to control.

For assay [8], the target named is T3, Dual specificity tyrosine-phosphorylation-regulated kinase 3 (Homo sapiens) (UniProt O43781).
T3 sequence (whole entry): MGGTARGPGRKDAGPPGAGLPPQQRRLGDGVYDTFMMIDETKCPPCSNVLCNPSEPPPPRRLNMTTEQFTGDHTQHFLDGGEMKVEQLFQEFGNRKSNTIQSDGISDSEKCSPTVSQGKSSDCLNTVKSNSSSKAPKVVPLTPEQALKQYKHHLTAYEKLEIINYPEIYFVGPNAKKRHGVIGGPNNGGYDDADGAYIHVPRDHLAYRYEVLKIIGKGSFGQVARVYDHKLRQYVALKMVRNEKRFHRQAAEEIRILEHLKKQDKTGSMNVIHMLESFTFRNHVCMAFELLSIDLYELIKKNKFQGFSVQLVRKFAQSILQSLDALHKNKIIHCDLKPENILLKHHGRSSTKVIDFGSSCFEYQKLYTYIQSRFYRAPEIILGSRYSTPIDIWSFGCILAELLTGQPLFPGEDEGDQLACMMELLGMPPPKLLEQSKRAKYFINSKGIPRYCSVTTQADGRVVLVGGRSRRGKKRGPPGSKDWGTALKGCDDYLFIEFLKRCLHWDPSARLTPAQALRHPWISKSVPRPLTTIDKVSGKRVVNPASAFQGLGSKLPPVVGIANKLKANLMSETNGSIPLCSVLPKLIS
Kind of assay: Inhibition of human DYRK3 at 18.6 nM by HotSpot assay relative to control.

Assay [9] concerns the target Mitogen-activated protein kinase 8 (Homo sapiens) (UniProt P45983). In words: Inhibition of human JNK1 at 18.6 nM by HotSpot assay relative to control.
The target in assay [10] is Ribosomal protein S6 kinase beta-1 (Homo sapiens) (UniProt P23443). In words: Inhibition of human RPS6KB1 at 18.6 nM by HotSpot assay relative to control.
In assay [11] the target is Serine/threonine-protein kinase PAK 2 (Homo sapiens) (UniProt Q13177). In words: Inhibition of human PAK2 at 18.6 nM by HotSpot assay relative to control.
Serine/threonine-protein kinase PAK 2 (Homo sapiens), sequence (Q13177 whole entry): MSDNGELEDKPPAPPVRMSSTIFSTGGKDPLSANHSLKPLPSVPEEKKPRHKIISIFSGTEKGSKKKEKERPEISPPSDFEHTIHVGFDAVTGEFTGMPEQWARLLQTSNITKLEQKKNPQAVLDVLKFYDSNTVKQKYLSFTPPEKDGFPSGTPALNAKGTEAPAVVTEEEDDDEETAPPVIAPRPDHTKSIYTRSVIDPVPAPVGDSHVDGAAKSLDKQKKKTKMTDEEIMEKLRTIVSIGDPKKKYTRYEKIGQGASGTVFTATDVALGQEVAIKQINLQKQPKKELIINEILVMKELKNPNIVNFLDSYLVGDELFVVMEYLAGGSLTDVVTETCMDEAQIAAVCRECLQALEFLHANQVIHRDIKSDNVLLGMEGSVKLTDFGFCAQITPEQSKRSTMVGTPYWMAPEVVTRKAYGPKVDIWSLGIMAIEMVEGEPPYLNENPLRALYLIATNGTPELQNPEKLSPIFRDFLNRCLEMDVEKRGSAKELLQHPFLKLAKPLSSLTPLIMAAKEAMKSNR
The target of assay [12] is Platelet-derived growth factor receptor beta (Homo sapiens) (UniProt P09619). Kind of assay: Inhibition of human PDGFRb at 18.6 nM by HotSpot assay relative to control.
Platelet-derived growth factor receptor beta (Homo sapiens), sequence (P09619 whole entry): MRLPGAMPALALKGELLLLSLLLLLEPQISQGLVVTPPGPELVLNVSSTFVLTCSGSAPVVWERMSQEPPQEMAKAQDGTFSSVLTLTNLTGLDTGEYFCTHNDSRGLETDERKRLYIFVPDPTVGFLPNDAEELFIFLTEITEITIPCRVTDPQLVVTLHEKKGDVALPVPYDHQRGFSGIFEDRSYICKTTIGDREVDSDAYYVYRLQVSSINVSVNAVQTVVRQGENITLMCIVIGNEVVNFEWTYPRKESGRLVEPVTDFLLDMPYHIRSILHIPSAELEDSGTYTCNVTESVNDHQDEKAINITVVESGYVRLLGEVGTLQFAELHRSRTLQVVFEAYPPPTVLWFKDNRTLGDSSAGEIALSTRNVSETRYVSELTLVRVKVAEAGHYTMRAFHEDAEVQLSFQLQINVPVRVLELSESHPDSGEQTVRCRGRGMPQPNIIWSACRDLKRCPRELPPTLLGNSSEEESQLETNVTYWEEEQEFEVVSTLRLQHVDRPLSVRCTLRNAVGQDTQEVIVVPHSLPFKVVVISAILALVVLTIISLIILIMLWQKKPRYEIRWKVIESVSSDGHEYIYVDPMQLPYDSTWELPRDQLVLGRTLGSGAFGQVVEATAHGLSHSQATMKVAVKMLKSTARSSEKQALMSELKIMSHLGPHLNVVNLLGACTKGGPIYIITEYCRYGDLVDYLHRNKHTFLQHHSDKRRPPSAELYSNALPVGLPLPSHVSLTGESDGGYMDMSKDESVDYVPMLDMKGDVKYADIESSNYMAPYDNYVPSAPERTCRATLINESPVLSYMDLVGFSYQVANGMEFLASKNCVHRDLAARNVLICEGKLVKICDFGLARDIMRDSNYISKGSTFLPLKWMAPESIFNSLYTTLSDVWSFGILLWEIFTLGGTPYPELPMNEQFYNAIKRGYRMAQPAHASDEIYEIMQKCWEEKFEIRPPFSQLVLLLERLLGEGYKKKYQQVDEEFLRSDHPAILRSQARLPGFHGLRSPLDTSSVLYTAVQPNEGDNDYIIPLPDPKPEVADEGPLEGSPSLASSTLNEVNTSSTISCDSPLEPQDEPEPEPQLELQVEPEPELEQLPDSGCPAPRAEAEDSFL
Assay [13] deals with Proto-oncogene tyrosine-protein kinase receptor Ret (Homo sapiens) (UniProt P07949). Kind of assay: Inhibition of human RET at 18.6 nM by HotSpot assay relative to control.
Proto-oncogene tyrosine-protein kinase receptor Ret (Homo sapiens), sequence (P07949 whole entry): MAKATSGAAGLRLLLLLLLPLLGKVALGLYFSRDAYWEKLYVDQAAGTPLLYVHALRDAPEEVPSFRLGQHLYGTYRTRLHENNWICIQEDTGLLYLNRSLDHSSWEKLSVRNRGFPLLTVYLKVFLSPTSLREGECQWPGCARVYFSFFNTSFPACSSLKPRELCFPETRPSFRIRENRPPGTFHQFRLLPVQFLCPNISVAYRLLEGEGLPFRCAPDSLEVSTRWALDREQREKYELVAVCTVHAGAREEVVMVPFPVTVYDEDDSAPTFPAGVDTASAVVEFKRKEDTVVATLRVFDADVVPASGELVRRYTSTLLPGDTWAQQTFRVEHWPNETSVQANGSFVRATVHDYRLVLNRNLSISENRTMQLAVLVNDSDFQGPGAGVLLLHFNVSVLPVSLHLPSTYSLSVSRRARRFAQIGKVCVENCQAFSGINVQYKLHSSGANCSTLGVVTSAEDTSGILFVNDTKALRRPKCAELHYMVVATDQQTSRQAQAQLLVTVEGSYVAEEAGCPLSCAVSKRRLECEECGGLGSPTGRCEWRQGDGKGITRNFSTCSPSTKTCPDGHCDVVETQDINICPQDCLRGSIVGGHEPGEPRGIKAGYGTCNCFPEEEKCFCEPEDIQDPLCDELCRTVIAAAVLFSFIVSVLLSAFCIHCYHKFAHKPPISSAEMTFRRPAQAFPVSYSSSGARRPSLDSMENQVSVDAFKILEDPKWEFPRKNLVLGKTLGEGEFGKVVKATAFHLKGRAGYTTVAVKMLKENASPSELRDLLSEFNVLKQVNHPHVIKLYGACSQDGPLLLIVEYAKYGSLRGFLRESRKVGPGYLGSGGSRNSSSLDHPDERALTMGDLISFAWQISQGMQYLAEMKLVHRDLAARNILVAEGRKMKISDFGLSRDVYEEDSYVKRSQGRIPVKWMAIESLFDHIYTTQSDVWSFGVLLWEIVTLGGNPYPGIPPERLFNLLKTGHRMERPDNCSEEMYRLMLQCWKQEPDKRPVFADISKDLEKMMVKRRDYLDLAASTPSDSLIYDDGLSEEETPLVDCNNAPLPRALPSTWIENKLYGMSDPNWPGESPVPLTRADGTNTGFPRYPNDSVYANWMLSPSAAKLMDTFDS
Assay [14] concerns the target TGF-beta receptor type-2 (Homo sapiens) (UniProt P37173). Kind of assay: Inhibition of human TGFBR2 at 18.6 nM by HotSpot assay relative to control.

G protein-coupled receptor kinase 6 (Homo sapiens), sequence (P43250 whole entry, looked up): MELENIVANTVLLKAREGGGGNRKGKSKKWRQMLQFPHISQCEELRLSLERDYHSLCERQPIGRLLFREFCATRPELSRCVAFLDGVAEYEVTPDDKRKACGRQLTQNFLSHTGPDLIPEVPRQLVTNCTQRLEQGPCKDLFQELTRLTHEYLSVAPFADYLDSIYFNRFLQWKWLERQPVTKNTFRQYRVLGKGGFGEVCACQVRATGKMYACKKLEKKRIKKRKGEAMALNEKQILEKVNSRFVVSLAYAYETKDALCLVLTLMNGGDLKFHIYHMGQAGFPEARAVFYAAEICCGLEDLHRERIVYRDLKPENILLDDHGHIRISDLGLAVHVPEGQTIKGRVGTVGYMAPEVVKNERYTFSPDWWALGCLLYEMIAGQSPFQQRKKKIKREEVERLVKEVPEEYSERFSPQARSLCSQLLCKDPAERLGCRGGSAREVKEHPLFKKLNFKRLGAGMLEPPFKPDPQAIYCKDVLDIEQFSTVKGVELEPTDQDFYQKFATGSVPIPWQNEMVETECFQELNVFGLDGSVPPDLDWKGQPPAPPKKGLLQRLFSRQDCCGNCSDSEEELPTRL
Serine/threonine-protein kinase 10 (Homo sapiens), sequence (O94804 whole entry, looked up): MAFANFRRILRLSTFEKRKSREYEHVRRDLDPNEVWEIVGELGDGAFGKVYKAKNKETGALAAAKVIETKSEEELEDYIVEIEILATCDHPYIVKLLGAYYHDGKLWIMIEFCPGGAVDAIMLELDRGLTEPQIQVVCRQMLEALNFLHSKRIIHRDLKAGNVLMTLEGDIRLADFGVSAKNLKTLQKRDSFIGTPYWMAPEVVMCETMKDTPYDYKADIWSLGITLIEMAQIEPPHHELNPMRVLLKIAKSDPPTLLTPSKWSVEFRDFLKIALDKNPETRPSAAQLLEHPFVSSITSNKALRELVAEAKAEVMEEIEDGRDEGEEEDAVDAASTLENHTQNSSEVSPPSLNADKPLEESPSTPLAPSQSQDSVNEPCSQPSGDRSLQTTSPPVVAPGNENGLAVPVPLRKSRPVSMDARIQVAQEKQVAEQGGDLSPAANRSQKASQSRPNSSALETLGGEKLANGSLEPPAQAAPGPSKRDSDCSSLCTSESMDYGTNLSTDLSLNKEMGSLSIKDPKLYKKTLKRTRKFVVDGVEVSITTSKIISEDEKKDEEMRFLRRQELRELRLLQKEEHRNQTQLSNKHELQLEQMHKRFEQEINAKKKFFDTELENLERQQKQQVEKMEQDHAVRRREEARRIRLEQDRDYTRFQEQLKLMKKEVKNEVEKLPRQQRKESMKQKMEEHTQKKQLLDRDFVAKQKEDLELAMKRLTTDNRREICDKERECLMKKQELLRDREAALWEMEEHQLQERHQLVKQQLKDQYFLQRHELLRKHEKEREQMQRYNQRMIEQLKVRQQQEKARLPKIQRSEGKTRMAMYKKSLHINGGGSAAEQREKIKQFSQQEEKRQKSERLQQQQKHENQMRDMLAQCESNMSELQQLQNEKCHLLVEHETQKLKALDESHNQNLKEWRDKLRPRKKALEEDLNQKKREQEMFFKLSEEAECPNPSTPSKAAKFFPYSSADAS
Mitogen-activated protein kinase 8 (Homo sapiens), sequence (P45983 whole entry): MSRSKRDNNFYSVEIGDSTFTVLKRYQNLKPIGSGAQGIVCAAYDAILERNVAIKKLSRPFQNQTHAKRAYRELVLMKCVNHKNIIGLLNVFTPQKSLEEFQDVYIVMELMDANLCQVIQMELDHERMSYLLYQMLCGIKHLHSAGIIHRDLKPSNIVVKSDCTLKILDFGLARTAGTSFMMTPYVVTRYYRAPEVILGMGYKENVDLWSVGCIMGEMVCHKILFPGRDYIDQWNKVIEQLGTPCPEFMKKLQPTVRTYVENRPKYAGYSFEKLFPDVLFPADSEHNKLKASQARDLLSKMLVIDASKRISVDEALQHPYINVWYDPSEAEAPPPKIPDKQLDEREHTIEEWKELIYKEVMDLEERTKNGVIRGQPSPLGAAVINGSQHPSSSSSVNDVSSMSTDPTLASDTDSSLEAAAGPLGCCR

For `C[C@@]1(C(=O)Nc2ccc(F)nc2)CCCN1c1nc(Nc2cc(C3CC3)n[nH]2)c2cccn2n1`, the inhibition was 3.21% in assay [1]; 30% in assay [2]; -3.77% in assay [3]; 2.92% in assay [4]; 12% in assay [5].
With `C[C@]1(O)C[C@@H](c2nc(-c3ccc4ccc(-c5ccccc5)nc4c3)c3c(N)nccn32)C1`, the inhibition in [6] was -6.1%; in assay [7], -0.54%; in assay [8], 3.01%; in [9], -1.1%; in assay [10], -4.9%; in assay [11], -7.87%. For the same compound, the inhibition came out at 8.57% in assay [12], 15.8% in assay [13] and 8.98% in [14].
